# Laboratory results published in patent US20240277715A1, “COMBINATION THERAPIES COMPRISING A METTL3 INHIBITOR AND A FURTHER ANTICANCER AGENT” (Storm Therapeutics Limited, priority 2021, published 2024).
# Where two headings read alike, the source gives them in different places.
# Legend:
# Kasumi1 AML cell line = assay: AML cell viability, CellTiter-Glo combination matrix, Kasumi1; assay type: cell-based; settings: for IC50: Homo sapiens, Kasumi 1, Kasumi1 cells
# Experimental: (§1) The sensitivity of AML cell lines to combinations of METTL3 inhibitor and standards of care was determined as described. Dose response curves of venetoclax were determined either alone or in the presence of different concentrations of METTL3 inhibitor that are known to be active in cells.
# (§2) Synergistic interactions occur when the IC50 value decreases in the presence of METTL3 inhibitor. […] Antagonistic interactions occur when the IC50 value increases in the presence of METTL3 inhibitor.
# (§3) 24 h before cell treatment, homogenize, stain with Trypan blue and count viable cells using CellOMeter Auto T4. Dilute cells in media at 400 000 cells/ml to ensure an exponential growth the day after.
# (§4) On treatment day, homogenize, stain with Trypan blue and count viable cells using CellOMeter Auto T4. Dilute to the proper cell seeding density according to Table 6 in cell media.
# (§5) • Dispense drug (see Table 7) and METTL3 inhibitor in semi-log dose-response matrix and DMSO in 384-well plates using D300e Nanodispenser (Tecan). • 6× compound solution preparation: add 40 μL of cell medium in compound-containing plates and homogenize using the ViaFlo device (Integra) • Dispense 30 μl of cell suspension per well in three replicate 384-well white Ultra-Low-Attachment plates (Sbio) using ViaFlow device (Integra) • Transfer 6 μL of the 6× compound solution in each 30 μL cell suspension-containing plate. • Incubate at 37° C. 5% CO2 for 3 to 5 days.
# (§6) • Add 35 μL CellTiter-Glo (Promega) in wells (vol/vol) using ViaFlo device (Integra). • Incubate at RT 10 min in the dark, with agitation the first minute, and read luminescence on the Ensight device (Perkin Elmer).
# (§7) Raw data were converted to % viability by normalization to DMSO controls. IC50 determination was performed using GraphPad Prism and fitting curves to the standard nonlinear regression four parameter equation (Y=Bottom+(Top-Bottom)/(1+(IC50/X)^HillSlope)) least squares method, and synergy was assessed by comparison of IC50 values of the standard of care in the presence or absence of different concentrations of METTL3 inhibitor (see FIGS. 12 to 19).
# AML = settings: cited from earlier work
# [1] = system: FLT3-mutant MOLM-14 AML cell line; assay: AML cell viability, CellTiter-Glo combination matrix, MOLM-14; assay type: cell-based
# Experimental: as §3, §4, §5, §6
# Raw data were converted to % viability by normalization to DMSO controls.
# MOLM13 AML cell line = assay: AML cell viability, CellTiter-Glo combination matrix, MOLM13; assay type: cell-based; settings: for interaction with venetoclax: MOLM13 AML cell line
# Experimental: as §1, §2, §3, §4, §5, §6, §7
# [2] = system: SKOV3 human ovarian cancer cells; assay: Tumour killing assay (TKA), SKOV3 spheroid / PBMC co-culture; assay type: cell-based; settings: STM3480 0.05 micromolar, FIG. 1 and 2
# Experimental: This experiment evaluates the effects of human donor Peripheral Blood Mononuclear Cells (PBMCs) to attack and kill fluorescently-labelled tumour cells in a co-culture assay. Briefly, test agents are incubated at different concentrations with SKOV3 human ovarian cancer cells in the presence or absence of human donor PBMCs and tumour growth is monitored continuously by real time imaging of the NucLight Red-labelled SKOV3 cells for several days.
# NucLight Red (Incucyte, Essen Biosciences)-transduced SK-OV-3 (SK-OV-3-NLR) cells were transferred into Ultra-low attachment 96 well plates with spontaneous spheroid formation occurring over 48 hours. Peripheral blood mononuclear cells (PBMC) were isolated from healthy single donor buffy coats by density separation. Prior to co-culture of SK-OV-3-NLR spheroids with PBMC, SK-OV-3-NLR spheroids were treated with 10 ng/ml of interferon gamma (IFNγ). All treatments, including STM3480 and Pembrolizumab, were added at the point of co-culture in a final total volume of 200 μl/per well. Assay plates were transferred into an IncuCyte S3 and images were collected every 2 hours for 7 days. Following experimental completion, an analysis definition was applied to quantify the Total NLR Integrated Intensity present on a per well basis. Changes in spheroid size were quantified by plotting Total NLR Integrated Intensity against time.
# [3] = Kasumi1, with increasing concentrations of STM3006
# [4] = Kasumi1, with increasing concentrations of STM3480
compound,measurement,setting,value
Nc1ccn([C@@H]2O[C@H](CO)[C@@H](O)[C@@H]2O)c(=O)n1 [cytarabine],change in IC50 of the standard of care,Kasumi1 AML cell line; [3],No change
same,change in IC50 of the standard of care,Kasumi1 AML cell line; [4],No change
O=C(NCc1cn2cc(CNCC3CCCCC3)ccc2n1)c1cc(=O)n2ccccc2n1 [STM2457],AML growth,AML,reduction
same,differentiation and apoptosis,AML,increase
COc1cccc2c1C(=O)c1c(O)c3c(c(O)c1C2=O)C[C@@](O)(C(C)=O)C[C@@H]3O[C@H]1C[C@H](N)[C@H](O)[C@H](C)O1 [daunorubicin],change in IC50 of the standard of care,Kasumi1 AML cell line; [3],No change
same,change in IC50 of the standard of care,Kasumi1 AML cell line; [4],No change
"CC1(C)CCN(Cc2ccc3nc(Cn4cc(-c5cc(Br)cc6[nH]ncc56)nn4)cn3c2)CC1 [STM3006, 6-bromo-4-[1-({6-[(4,4-dimethylpiperidin-1-yl)methyl]imidazo[1,2-a]pyridin-2-yl}methyl)-1H-1,2,3-triazol-4-yl]-1H-indazole]",cell viability with increasing concentrations of METTL3 inhibitor,"Kasumi1 AML cell line; Kasumi1, combination with daunorubicin",decreasing viability
same,interaction with 5′-azacitidine,Kasumi1 AML cell line; Kasumi1 AML cell line,additive
same,interaction with cytarabine,Kasumi1 AML cell line; Kasumi1 AML cell line,additive
same,interaction with daunorubicin,Kasumi1 AML cell line; Kasumi1 AML cell line,additive
same,interaction with venetoclax,Kasumi1 AML cell line; Kasumi1 AML cell line,synergistic
same,interaction with quizartinib,[1]; FLT3-mutant MOLM-14 AML cell line,additive
same,cell viability with increasing concentrations of METTL3 inhibitor,"[1]; MOLM-14, combination with quizartinib",decreasing viability
same,interaction with venetoclax,MOLM13 AML cell line,synergistic
"O=C(NCc1ccc2cc(CNCC34CC(F)(C3)C4)[nH]c2c1)c1cc(=O)n2ccccc2n1 [STM3675, N-[(2-{[({3-fluorobicyclo[1.1.1]pentan-1-yl}methyl)amino]methyl}-1H-indol-6-yl)methyl]-4-oxo-4H-pyrido[1,2-a]pyrimidine-2-carboxamide]",interaction with venetoclax,Kasumi1 AML cell line; Kasumi1 AML cell line,synergistic
same,interaction with venetoclax,MOLM13 AML cell line,synergistic
"CC1(C)CCC(CN2CCN(c3ccc(C(=O)NS(=O)(=O)c4ccc(NCC5CCOCC5)c([N+](=O)[O-])c4)c(Oc4cnc5[nH]ccc5c4)c3)CC2)=C(c2ccc(Cl)cc2)C1 [venetoclax, 4-{4-[(4′-chloro-5,5-dimethyl[3,4,5,6-tetrahydro[1,1′-biphenyl]]-2-yl)methyl]piperazin-1-yl}-N-(3-nitro-4-{[(oxan-4-yl)methyl]amino}benzene-1-sulfonyl)-2-[(1H-pyrrolo[2,3-b]pyridin-5-yl)oxy]benzamide]",IC50,"Kasumi1 AML cell line; in the presence of 316.2 nM STM3480, read-out: venetoclax IC50",50.9 nM
same,IC50,"Kasumi1 AML cell line; in the presence of 1000 nM STM3480, read-out: venetoclax IC50",22.2 nM
same,IC50,"Kasumi1 AML cell line; venetoclax alone, read-out: IC50 of venetoclax",238 nM
same,change in IC50 of the standard of care,Kasumi1 AML cell line; [3],decreasing
same,change in IC50 of the standard of care,Kasumi1 AML cell line; [4],decreasing
same,change in IC50 of the standard of care,"Kasumi1 AML cell line; Kasumi1, with increasing concentrations of STM3675",decreasing
same,change in IC50 of the standard of care,"MOLM13 AML cell line; MOLM13, with increasing concentrations of STM3006",decreasing
same,change in IC50 of the standard of care,"MOLM13 AML cell line; MOLM13, with increasing concentrations of STM3480",decreasing
same,change in IC50 of the standard of care,"MOLM13 AML cell line; MOLM13, with increasing concentrations of STM3675",decreasing
Nc1ncn([C@@H]2O[C@H](CO)[C@@H](O)[C@H]2O)c(=O)n1 [5′-azacitidine],change in IC50 of the standard of care,Kasumi1 AML cell line; [3],No change
same,change in IC50 of the standard of care,Kasumi1 AML cell line; [4],No change
Pembrolizumab: anti-PD1 antibody [reference compound],tumour viability (normalized NucLight Red [NLR] fluorescence) against time,[2],greater decline in viable tumour cells
